Experimental data: patent US20140031275A1, “METHODS OF ERADICATING BACTERIAL CELL POPULATIONS” (priority 2011, published 2014)

Experiments:
[1] = system: stationary state S. aureus SA113; experiment: Antibiotic action against stationary state S. aureus SA113 (MSSA), cfu counts; format: cell-based; conditions: for effect on stationary population of S. aureus cells: antibiotic alone, 5-day incubation, FIG. 1
Description: FIG. 1 is a graph showing antibiotic action against stationary state S. aureus. SA113.
(§1) Referring to FIG. 1, antibiotic action against stationary state S. aureus. SA113, an MSSA commonly used as a S. aureus model strain, was evaluated. S. aureus SA113 was grown in Mueller-Hinton broth for 24 hours. Antibiotics were added at day 0. Time-points were taken every 24 hours. 100 μl of culture was removed, centrifuged for one minute, and the cells were resuspended in PBS. Serial dilutions from neat to 10^−6 were spotted on MHA plates and incubated overnight at 37° C. The results shown in FIG. 1 are the averages of three independent experiments.

stationary S. aureus = conditions: high concentrations (24 μg/ml); sterilization not reported; cited from earlier work
[2] = system: stationary MRSA 37 culture; format: cell-based, S. aureus
Description: Black line represents the limit of detection
The ability of ADEP 10c to kill an S. aureus MRSA strain was also evaluated.
(§2) Resistance to methicillin and oxacillin is the hallmark of MRSA.

MRSA strain = experiment: Oxacillin MIC of MRSA strain; format: cell-based, S. aureus; conditions: Staphylococcus aureus
Description: as §2

[3] = from literature, healthy volunteers; cited from earlier work
S. aureus = experiment: MIC against S. aureus; format: cell-based
Description: as §1

O=C(O)c1cn(C2CC2)c2cc(N3CCNCC3)c(F)cc2c1=O [ciprofloxacin]
effect on stationary population of S. aureus cells [1]: little effect

CCCCCCCCCC(=O)N[C@@H](Cc1c[nH]c2ccccc12)C(=O)N[C@H](CC(N)=O)C(=O)N[C@@H](CC(=O)O)C(=O)N[C@@H]1C(=O)NCC(=O)N[C@@H](CCCN)C(=O)N[C@@H](CC(=O)O)C(=O)N[C@H](C)C(=O)N[C@@H](CC(=O)O)C(=O)NCC(=O)N[C@H](CO)C(=O)N[C@@H]([C@H](C)CC(=O)O)C(=O)N[C@@H](CC(=O)c2ccccc2N)C(=O)O[C@@H]1C [Daptomycin]
activity against stationary S. aureus (stationary S. aureus): some activity

Cc1onc(-c2ccccc2)c1C(=O)N[C@@H]1C(=O)N2[C@@H]1SC(C)(C)[C@@H]2C(=O)O [oxacillin]
effect on stationary population of S. aureus cells [1]: little effect | killing of clpP mutants of MRSA [2]: killed clpP mutants of MRSA | killing of stationary MRSA cells ([2]; oxacillin alone): no effect | MIC (MRSA strain): > 75 µg/mL | clinically achievable concentrations [3]: 16 µg/mL

L-proline, 3-fluoro-N-[(2E)-1-oxo-2-hepten-1-yl]-L-phenylalanyl-L-seryl-L-prolyl-(2S)-4-methyl-2-piperidinecarbonyl-L-alanyl-, (6→2)-lactone [ADEP 10c]
MIC (S. aureus; S. aureus): 5 µg/mL | MIC (S. aureus; tested with a variety of MSSA and MRSA isolates): 5 µg/mL | cell numbers of the stationary population [1]: about 10^4 per ml | killing of stationary cells, ADEP 10c compared with ADEP 4 [1]: more efficacious at killing stationary cells

CC(=O)NC[C@H]1CN(c2ccc(N3CCOCC3)c(F)c2)C(=O)O1 [linezolid]
effect on stationary population of S. aureus cells [1]: little effect | clinically achievable concentrations [3]: 14.5 µg/mL

CO[C@H]1/C=C/O[C@@]2(C)Oc3c(C)c(O)c4c(O)c(c(/C=N/N5CCN(C)CC5)c(O)c4c3C2=O)NC(=O)/C(C)=C\C=C\[C@H](C)[C@H](O)[C@@H](C)[C@@H](O)[C@@H](C)[C@H](OC(C)=O)[C@@H]1C [rifampicin]
clinically achievable concentrations [3]: 7.2 µg/mL
